Several values for one entry are separate records, joined by “and”; a condition that tells them apart may be missing. Equal entries are not always repeated. Inconclusive results and toxic doses are left out. The calls were made as follows: active = survival T/C of 150% or more; inactive = T/C below 125% in these data.
System: CD2F1 mice, L1210 leukemia ip, survival T/C
Experiment: NCI In Vivo Anticancer Drug Screen. Data for tumor model L1210 Leukemia (intraperitoneal) in CD2F1 (CDF1) mice
Settings: endpoint: mean survival time, higher = longer survival
Method in brief: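 Mice carrying a transplanted tumor received test compound or vehicle alone. The value is the measurement in the treated group divided by that in the vehicle-treated control group.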

[1] = dose: 50.0 mg/kg/injection, schedule: Q04DX002 (ip), vehicle: saline with Tween-80
[2] = dose: 100.0 mg/kg/injection, schedule: Q04DX002 (ip), vehicle: saline with Tween-80
[3] = dose: 200.0 mg/kg/injection, schedule: Q04DX002 (ip), vehicle: saline with Tween-80
[4] = dose: 400.0 mg/kg/injection, schedule: Q04DX002 (ip), vehicle: saline with Tween-80
[5] = dose: 200.0 mg/kg/injection, schedule: Q04DX003 (ip), vehicle: saline with Tween-80
[6] = dose: 50.0 mg/kg/injection, schedule: Q01DX009 (ip), vehicle: saline with Tween-80
[7] = dose: 100.0 mg/kg/injection, schedule: Q01DX009 (ip), vehicle: saline with Tween-80
[8] = dose: 200.0 mg/kg/injection, schedule: Q01DX009 (ip), vehicle: saline with Tween-80
[9] = dose: 100.0 mg/kg/injection, schedule: Q04DX003 (ip), vehicle: saline with Tween-80
[10] = dose: 400.0 mg/kg/injection, schedule: Q04DX003 (ip), vehicle: saline with Tween-80
[11] = dose: 100.0 mg/kg/injection, schedule: Q04DX003 (ip), vehicle: Klucel (hydroxypropylcellulose) (HPC)
[12] = dose: 200.0 mg/kg/injection, schedule: Q04DX003 (ip), vehicle: Klucel (hydroxypropylcellulose) (HPC)
[13] = dose: 400.0 mg/kg/injection, schedule: Q04DX003 (ip), vehicle: Klucel (hydroxypropylcellulose) (HPC)

Measured: T/C

CCCC(C#N)(CCC)C(=O)OCC
inactive: dose: 12.5 mg/kg/injection, schedule: Q01DX001 (ip), vehicle: Klucel (hydroxypropylcellulose) (HPC) 102 % of control | dose: 25.0 mg/kg/injection, schedule: Q01DX001 (ip), vehicle: Klucel (hydroxypropylcellulose) (HPC) 99 % of control | dose: 50.0 mg/kg/injection, schedule: Q01DX001 (ip), vehicle: Klucel (hydroxypropylcellulose) (HPC) 99 % of control

NC(=O)OCCc1c2ccccc2[n+]([O-])c2ccccc12
inactive: [1] 98 % of control | [2] 95 % of control | [3] 98 % of control | [4] 95 % of control

CCn1c(=N)sc2ccc(C(=O)OC)cc21
inactive: dose: 12.5 mg/kg/injection, schedule: Q04DX002 (ip), vehicle: saline with Tween-80 101 % of control | dose: 25.0 mg/kg/injection, schedule: Q04DX002 (ip), vehicle: saline with Tween-80 96 % of control | [1] 90 % of control | [5] 88 % of control

COc1ccccc1C(=O)NS(=O)(=O)c1ccc(Cl)cc1
inactive: dose: 100.0 mg/kg/injection, schedule: Q01DX009 (ip), vehicle: acetone 101 % of control | dose: 200.0 mg/kg/injection, schedule: Q01DX009 (ip), vehicle: acetone 107 % of control

CS(=O)(=O)Nc1ccc2c(c1)C(=O)c1ccccc1C2=O
inactive: [6] 101 % of control | [7] 101 % of control | [8] 97 % of control

CN1C2CCC1CC(O)C2 (stereo not given)
inactive: dose: 100.0 mg/kg/injection, schedule: Q04DX002 (ip), vehicle: saline 109 % of control | dose: 200.0 mg/kg/injection, schedule: Q04DX002 (ip), vehicle: saline 109 % of control | dose: 400.0 mg/kg/injection, schedule: Q04DX002 (ip), vehicle: saline 97 % of control

Cc1ccccc1NC(=O)c1cc2ccccc2cc1O
inactive: [7] 91 % of control | [9] 102 % of control | [8] 94 % of control | [5] 89 % of control | dose: 400.0 mg/kg/injection, schedule: Q01DX009 (ip), vehicle: saline with Tween-80 94 % of control | [10] 91 % of control

Cc1cc(NCCCCCCNc2cc(C)[n+](C)c3c(Cl)cccc23)c2cccc(Cl)c2[n+]1C
inactive: dose: 12.5 mg/kg/injection, schedule: Q01DX009 (ip), vehicle: Klucel (hydroxypropylcellulose) (HPC) 98 % of control | dose: 25.0 mg/kg/injection, schedule: Q01DX009 (ip), vehicle: Klucel (hydroxypropylcellulose) (HPC) 98 % of control | dose: 50.0 mg/kg/injection, schedule: Q01DX009 (ip), vehicle: Klucel (hydroxypropylcellulose) (HPC) 94 % of control

Cc1ccccc1C1(c2ccccc2C)OC(=O)c2ccccc21
inactive: dose: 100.0 mg/kg/injection, schedule: Q04DX003 (ip), vehicle: acetone 104 % of control | dose: 200.0 mg/kg/injection, schedule: Q04DX003 (ip), vehicle: acetone 88 % of control | dose: 400.0 mg/kg/injection, schedule: Q04DX003 (ip), vehicle: acetone 96 % of control

CC1=C(C)CS(=O)(=O)C1
inactive: [9] 95 % of control

CC(=O)NCCSSCCNC(C)=O
inactive: [1] 91 % of control | [2] 95 % of control | [3] 88 % of control | [4] 109 % of control

CCOCCSc1ccccc1
inactive: dose: 100.0 mg/kg/injection, schedule: Q01DX001 (ip), vehicle: saline 104 % of control | dose: 200.0 mg/kg/injection, schedule: Q01DX001 (ip), vehicle: saline 102 % of control | dose: 400.0 mg/kg/injection, schedule: Q01DX001 (ip), vehicle: saline 102 % of control

COC(=O)C1CCCCCC1=O (stereo not given)
inactive: [9] 96 % of control | [5] 94 % of control | [10] 88 % of control

CN1CCC(Br)(C(=O)c2ccccc2)CC1
inactive: dose: 37.5 mg/kg/injection, schedule: Q01DX009 (ip), vehicle: saline with Tween-80 100 % of control | dose: 75.0 mg/kg/injection, schedule: Q01DX009 (ip), vehicle: saline with Tween-80 95 % of control | dose: 75.0 mg/kg/injection, schedule: Q04DX003 (ip), vehicle: saline with Tween-80 97 % of control | dose: 150.0 mg/kg/injection, schedule: Q01DX009 (ip), vehicle: saline with Tween-80 92 % of control | dose: 150.0 mg/kg/injection, schedule: Q04DX003 (ip), vehicle: saline with Tween-80 98 % of control

CNC(=S)Nc1ccc(OC)c2ccccc12
inactive: [11] 86 % of control | [12] 88 % of control | [13] 89 % of control

C1CCC2C[N-]CCC2C1.C1CCC2C[N-]CCC2C1.C1CCC2C[N-]CCC2C1.C1CCC2C[N-]CCC2C1.[I][Fe][I] (stereo not given)
inactive: [9] 108 % of control | [5] 106 % of control

CC(C)=CCNc1ncnc2c1ncn2C1OC(CO)C(O)C1O (stereo not given)
inactive: [7] 95 % of control | [9] 91 % of control | [5] 101 % of control | [10] 100 % of control

NC(CN1CCCCC1)C(=O)O (stereo not given)
inactive: [2] 98 % of control | [3] 90 % of control | [4] 94 % of control

CC(C)COP(=O)(OCC(C)C)OCC(C)C
inactive: [9] 100 % of control | [5] 92 % of control

FCCc1ccccc1
inactive: dose: 50.0 mg/kg/injection, schedule: Q04DX003 (ip), vehicle: saline sonified 98 % of control | dose: 100.0 mg/kg/injection, schedule: Q01DX001 (ip), vehicle: saline with Tween-80 97 % of control and 94 % of control | dose: 100.0 mg/kg/injection, schedule: Q04DX003 (ip), vehicle: saline sonified 98 % of control | dose: 200.0 mg/kg/injection, schedule: Q01DX001 (ip), vehicle: saline with Tween-80 95 % of control | dose: 200.0 mg/kg/injection, schedule: Q04DX003 (ip), vehicle: saline sonified 98 % of control | dose: 400.0 mg/kg/injection, schedule: Q01DX001 (ip), vehicle: saline with Tween-80 103 % of control and 94 % of control

CC(c1ccccc1)n1cncc1C(=O)N1CCN(C)CC1 (stereo not given)
inactive: dose: 25.0 mg/kg/injection, schedule: Q01DX009 (ip), vehicle: saline with Tween-80 105 % of control | [6] 96 % of control | [7] 94 % of control and 95 % of control | [9] 92 % of control | [5] 91 % of control | [10] 97 % of control

O=C(CNC(=O)Nc1cccc(C(F)(F)F)c1)NNC(=O)Nc1ccc(Cl)c([N+](=O)[O-])c1
inactive: [7] 89 % of control | [8] 86 % of control

CCOC(=O)c1c(C)nc(C)c(C(=O)OCC)c1-c1ccc(N(C)C)cc1
inactive: [9] 104 % of control | [5] 98 % of control

COC(=O)CCc1nc2ccccc2c(=O)[nH]1
inactive: [11] 102 % of control | [12] 109 % of control | [13] 102 % of control
